Literature values in PMC10667676, “Pharmacokinetics and bioequivalence of sunitinib and Sutent® in Chinese healthy subjects: an open-label, randomized, crossover study” (Frontiers in Pharmacology, 2023).

Assays:
CYP enzymes = conditions: ref Zhou and Gallo, 2010; Kassem et al., 2012a
[1] = design: method as in Bello and e t al., 2006; conditions: healthy subjects, high-fat, high-calorie diet, oral 50 mg; ref Bello and e t al., 2006

## CCN(CC)CCNC(=O)c1c(C)[nH]c(/C=C2\C(=O)Nc3ccc(F)cc32)c1C [Sunitinib]
Healthy subjects' plasma, no reference given
  Elimination half-life: 40 to 60 h
Primary route of elimination, ref Adams and Leggas, 2007
  Elimination through the feces, share of total administered dose: 61%
Ref Adams and Leggas, 2007
  Renal excretion, share of total administered dose: 16%
Ref Bello and e t al., 2006
  Effect of food consumption on bioavailability: unaltered
CYP enzymes
  Inhibition or induction of CYP enzymes: unlikely to significantly inhibit or induce
[1]
  AUC0-∞: 1489 (1276–1736) ng*h/mL
  AUC0–t: 1476 (1264–1724) ng*h/mL
  Cmax: 25.1 (21.1–29.7) ng/mL
  Tmax: 8.03 h
  t1/2: 59.1 h
